# Measurements as given in ChEMBL document CHEMBL3856277, “Design, synthesis, and activity evaluation of selective inhibitors of anti-apoptotic Bcl-2 proteins: The effects on the selectivity of the P1 pockets in the active sites” (Bioorg Med Chem Lett, 2016).
# How the values were obtained:
# [1] = target: Induced myeloid leukemia cell differentiation protein Mcl-1 (Homo sapiens, UniProt Q07820); test: Inhibition of 5-FAM-Bid peptide binding to MCL-1 (unknown origin) by fluorescence polarization assay
# Bcl-2-like protein 1 = Bcl-2-like protein 1 (Homo sapiens, UniProt Q07817); test: Inhibition of 5-FAM-Bid peptide binding to Bcl-XL (unknown origin) by fluorescence polarization assay
# Homo sapiens [2] = species: Homo sapiens; test: Selectivity index, ratio of Ki for Bcl-2 (unknown origin) to Ki for MCL-1 (unknown origin)
# Homo sapiens [3] = species: Homo sapiens; test: Selectivity index, ratio of Ki for Bcl-2 (unknown origin) to Ki for Bcl-XL (unknown origin)
# [4] = target: Apoptosis regulator Bcl-2 (Homo sapiens, UniProt P10415); test: Inhibition of 5-FAM-Bid peptide binding to Bcl-2 (unknown origin) by fluorescence polarization assay
# [5] = Growth inhibition of human HL60 cells after 72 hrs by MTT assay; type: functional, cell-based; conditions: HL-60, 72 h
# [6] = Growth inhibition of human NCI-H23 cells after 72 hrs by MTT assay; type: functional, cell-based; conditions: NCI-H23, 72 h
# [7] = Growth inhibition of human U266 cells after 72 hrs by MTT assay; type: functional, cell-based; conditions: U-266, 72 h
# [8] = Growth inhibition of human MCF7 cells after 72 hrs by MTT assay; type: functional, cell-based; conditions: MCF7, 72 h
# [9] = Growth inhibition of human SKOV3 cells after 72 hrs by MTT assay; type: functional, cell-based; conditions: SK-OV-3, 72 h
# Induced myeloid leukemia cell differentiation protein Mcl-1, sequence (Q07820 whole entry): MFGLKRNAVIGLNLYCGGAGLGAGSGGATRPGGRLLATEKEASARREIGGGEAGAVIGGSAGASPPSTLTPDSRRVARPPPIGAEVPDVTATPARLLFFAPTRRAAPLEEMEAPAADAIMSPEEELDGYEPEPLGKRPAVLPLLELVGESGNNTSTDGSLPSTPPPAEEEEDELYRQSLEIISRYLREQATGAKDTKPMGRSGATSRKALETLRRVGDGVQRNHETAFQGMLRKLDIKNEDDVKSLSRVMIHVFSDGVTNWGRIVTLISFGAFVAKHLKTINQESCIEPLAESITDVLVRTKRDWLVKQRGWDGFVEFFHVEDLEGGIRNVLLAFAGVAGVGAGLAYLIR
# Apoptosis regulator Bcl-2, sequence (P10415 whole entry): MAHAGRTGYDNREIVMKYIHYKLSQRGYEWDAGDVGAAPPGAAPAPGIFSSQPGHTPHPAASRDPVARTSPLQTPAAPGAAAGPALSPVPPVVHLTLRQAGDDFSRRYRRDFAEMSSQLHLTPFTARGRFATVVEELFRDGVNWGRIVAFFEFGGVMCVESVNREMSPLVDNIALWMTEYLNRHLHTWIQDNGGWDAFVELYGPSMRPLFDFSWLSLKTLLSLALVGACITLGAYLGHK
# Bcl-2-like protein 1, sequence (Q07817 whole entry): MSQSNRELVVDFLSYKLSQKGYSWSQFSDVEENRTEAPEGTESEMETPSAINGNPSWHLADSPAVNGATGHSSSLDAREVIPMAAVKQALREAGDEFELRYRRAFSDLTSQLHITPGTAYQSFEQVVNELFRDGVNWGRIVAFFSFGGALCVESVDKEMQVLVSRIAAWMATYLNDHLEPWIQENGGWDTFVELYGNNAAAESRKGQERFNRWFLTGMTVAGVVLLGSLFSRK
SMILES,Ki [1] [nM],Ki (Bcl-2-like protein 1) [nM],Ratio Ki (Homo sapiens [2]),Ratio Ki (Homo sapiens [3]),Ki [4] [nM],IC50 [5] [nM],IC50 [6] [µM],IC50 [7] [µM],IC50 [8] [nM],IC50 [9] [µM]
O=C(/C=C/c1cccc(C(F)(F)F)c1)Nc1ccc(C(=O)NS(=O)(=O)c2ccc(NCCSc3ccccc3)c([N+](=O)[O-])c2)cc1,5400,290,< 1,9,2600,–,–,–,–,–
CN(C)CC[C@H](CSc1ccccc1)Nc1ccc(S(=O)(=O)NC(=O)c2ccc(N3CCN(Cc4ccccc4-c4ccc(Cl)cc4)CC3)cc2)cc1[N+](=O)[O-] [ABT 737],–,–,–,–,–,970,71.2,27.4,25300,46.6
O=C(NS(=O)(=O)c1ccc(NCCSc2ccccc2)c([N+](=O)[O-])c1)c1ccc(C(=O)c2ccccc2)cc1,4000,330,1,10,3400,–,–,–,–,–
O=C(CCc1ccccc1)Nc1ccc(C(=O)NS(=O)(=O)c2ccc(NCCSc3ccccc3)c([N+](=O)[O-])c2)cc1,6900,320,1,14,4400,–,–,–,–,–
O=C(/C=C/c1ccc(Cl)cc1)Nc1ccc(C(=O)NS(=O)(=O)c2ccc(NCCSc3ccccc3)c([N+](=O)[O-])c2)cc1,2700,210,< 1,5,1100,–,–,–,–,–
O=C(Cc1ccccc1)Nc1ccc(C(=O)NS(=O)(=O)c2ccc(NCCSc3ccccc3)c([N+](=O)[O-])c2)cc1,5600,450,1,9,4000,–,–,–,–,–
COc1ccccc1/C=C/C(=O)Nc1ccc(C(=O)NS(=O)(=O)c2ccc(NCCSc3ccccc3)c([N+](=O)[O-])c2)cc1,8600,90,< 1,8,720,–,–,–,–,–
O=C(/C=C/c1ccccc1Cl)Nc1ccc(C(=O)NS(=O)(=O)c2ccc(NCCSc3ccccc3)c([N+](=O)[O-])c2)cc1,14000,120,< 1,5,600,–,–,–,–,–
O=C(Nc1ccc(C(=O)NS(=O)(=O)c2ccc(NCCSc3ccccc3)c([N+](=O)[O-])c2)cc1)c1ccccc1,6700,630,< 1,3,1700,–,–,–,–,–
O=C(/C=C/c1ccc(C(F)(F)F)cc1)Nc1ccc(C(=O)NS(=O)(=O)c2ccc(NCCSc3ccccc3)c([N+](=O)[O-])c2)cc1,1700,510,1,4,2000,–,–,–,–,–
Cc1cc2c(C(C)C)c(O)c(O)c(C=O)c2c(O)c1-c1c(C)cc2c(C(C)C)c(O)c(O)c(C=O)c2c1O [GOSSYPOL],640,–,–,–,–,–,–,–,–,–

# Continued, in another order:
Ki [1] [nM],Ki (Bcl-2-like protein 1) [nM],Ratio Ki (Homo sapiens [2]),Ratio Ki (Homo sapiens [3]),Ki [4] [nM],SMILES,IC50 [5] [nM],IC50 [6] [µM],IC50 [7] [µM],IC50 [8] [nM],IC50 [9] [µM]
1300,290,1,4,1300,O=C(/C=C/c1cccc(Cl)c1)Nc1ccc(C(=O)NS(=O)(=O)c2ccc(NCCSc3ccccc3)c([N+](=O)[O-])c2)cc1,–,–,–,–,–
630,130,2,12,1500,Cc1ccc(/C=C/C(=O)Nc2ccc(C(=O)NS(=O)(=O)c3ccc(NCCSc4ccccc4)c([N+](=O)[O-])c3)cc2)cc1,–,–,–,–,–
60,> 20000,70,< 1,4200,C=C(c1ccc(C(=O)NS(=O)(=O)c2ccc(NCCSc3ccccc3)c([N+](=O)[O-])c2)cc1)c1cc2c(cc1C)C(C)(C)CCC2(C)C,4860,7.4,7.63,2250,7.64
800,110,2,17,1900,COc1cccc(/C=C/C(=O)Nc2ccc(C(=O)NS(=O)(=O)c3ccc(NCCSc4ccccc4)c([N+](=O)[O-])c3)cc2)c1,–,–,–,–,–
590,70,2,19,1300,COc1ccc(/C=C/C(=O)Nc2ccc(C(=O)NS(=O)(=O)c3ccc(NCCSc4ccccc4)c([N+](=O)[O-])c3)cc2)cc1,–,–,–,–,–
440,160,4,11,1700,Cc1cccc(/C=C/C(=O)Nc2ccc(C(=O)NS(=O)(=O)c3ccc(NCCSc4ccccc4)c([N+](=O)[O-])c3)cc2)c1,–,–,–,–,–
1600,140,3,35,4900,O=C(/C=C/c1ccccc1)Nc1ccc(C(=O)NS(=O)(=O)c2ccc(NCCSc3ccccc3)c([N+](=O)[O-])c2)cc1,–,–,–,–,–
660,170,3,10,1700,O=C(/C=C/c1ccccc1C(F)(F)F)Nc1ccc(C(=O)NS(=O)(=O)c2ccc(NCCSc3ccccc3)c([N+](=O)[O-])c2)cc1,–,–,–,–,–
830,210,2,8,1700,Cc1ccccc1/C=C/C(=O)Nc1ccc(C(=O)NS(=O)(=O)c2ccc(NCCSc3ccccc3)c([N+](=O)[O-])c2)cc1,–,–,–,–,–
290,> 20000,11,< 1,3100,C=C(c1ccc(C(=O)Nc2ccc(C(=O)NS(=O)(=O)c3ccc(NCCSc4ccccc4)c([N+](=O)[O-])c3)cc2)cc1)c1cc2c(cc1C)C(C)(C)CCC2(C)C,2920,8.38,6.95,260,7.83
